Results as given in patent US10485814B2, “Nicotinamide riboside analogs and pharmaceutical compositions and uses thereof” (GlaxoSmithKline Intellectual Property (No. 2) Limited, priority 2014, dated 2019).
“Also recorded” adds a separate entry of the source.

Tested on: Reconstructed human epidermis (EpiDerm, EPI-200)
Assay: UVB-induced inflammation mediators in reconstructed epidermal equivalents
Assay type: cell-based
Conditions: topical 1 hr pre-treatment, NRH 0.1% or niacinamide 3%; UVB 150 mJ/cm^2; media 6 hr post irradiation
Excerpt: Solar Ultraviolet (UV) light exposure on skin causes photoaging, sunburn, DNA damages and carcinogenesis. UV radiation (UVR) also results in inflammation, which can be measured in vitro by pro-inflammatory mediators, e.g., TNF-α, IL-8. The in vitro reconstructed human epidermis (RHE) model is used to evaluate the anti-inflammatory effect of NRH.
Reconstructed human epidermis (EpiDerm, EPI-200, made of normal human epidermal keratinocytes, MatTek, Ashland, Mass.), were placed into media (EPI-100-ASY, 1.0 ml/well of 6-well plates) and incubated overnight at 37° C./5% CO2. The media was replenished with fresh culture media prior to study. NRH at 0.1% and niacinamide at 3% in vehicle (50% H2O/35% ethanol/15% propylene glycol, v/v/v) were applied topically at 6 μl and then gently spread onto the skin equivalents (˜20 rotations) using the rubber side of a plunger of 1 ml syringe. Vehicle was served as an untreated control. After 1 hr pre-treatment with NRH, niacinamide, or vehicle control, the EpiDerm tissues were transferred to a sterile 6-well plate containing 1 ml of DPBS per well and then exposed to UVB at 150 mJ/cm^2. The Newport Solar Simulator System (Power unit 69920, and Lamp 91192-1000, Newport Corporate, Irvine, Calif.) was used as the UVB emitter to achieve a UVB irradiation of 150 mJ/cm^2. Measurement of the irradiation was taken using an ILT-1400 Handheld, Portable Radiometer/Photometer (International Light Technologies, Inc., Peabody, Mass.) with a UVB detector (SEL240/T2ACT5, 235-307 nm, International Light Technologies, Inc.). After UVB irradiation, EpiDerm tissues were transferred back to the 6-well plate containing media and incubated at 37° C./5% CO2 for 6 hours. At the end of the incubation (6 hr post UVB irradiation), culture media were collected for the measurement of IL-8, and TNF-α concentration by MagPix (Millipore, HCYTOMAG-60K).

NC(=O)C1=CN([C@@H]2O[C@H](CO)[C@@H](O)[C@H]2O)C=CC1 [NRH, dihydronicotinamide riboside]
UVB-induced IL-8: inhibited; also recorded: reduces | UVB-induced TNF-α: inhibited; also recorded: reduces
